The nature of this data set: recombinant UMI read abundance after kanamycin selection (control-corrected) (log10(CPM+1)); higher = more efficient recombination; extreme values may be limits of the assay; sequences stand for … in AGTGCAGAGAAAATCGGCCAGTTTTCTCTGCCTGCAGTCCGCATGCCGTGGGACCCCTTGGGTTCTAACCTGTTGCCTAGATTTATGCAGCGGACTGCCTTTCTCCCAAAGTGATAAACCGG…AGGTTGGTTTCACT; site = the 11-nt donor. The gist of the method: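 In a pooled Escherichia coli screen for the IS621 bridge recombinase, donor and donor-binding-loop pairs were each placed with a 12-nt UMI on a plasmid bearing a promoterless kanamycin gene. This library was co-electroporated with a target plasmid encoding a fixed target and T7-inducible recombinase, and cells were plated either on IPTG (0.07 mM) plus kanamycin or without selection, in two replicates each. Recombinant UMIs were PCR-amplified across the donor–target junction and sequenced, and counts were converted to CPM, averaged over replicates, scaled by control-derived factors and reported as log10(CPM+1).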
As for “CCTAATACATGGACCGGTTTTCCCGGTAATCCGTATTTGCC (site CCTAATACTGG)”, the “recombinant UMI read abundance (log10)” value came out at 0.
With “CCTAATACATGGACCGGTTTTCCCGGTAATCCGTATTTGCC (site CCTAATACTGT)” the figure was 0; with “CCTAATACATGGACCGGTTTTCCCGGTAATCCGTATTTGGA (site CCTAATACTAC)”, 0.
The result for “CCTAATACATGGACCGGTTTTCCCGGTAATCCGTATTTGGA (site CCTAATACTCC)” reads 0.00642; that for “CCTAATACATGGACCGGTTTTCCCGGTAATCCGTATTTGGA (site CCTAATACTGC)”, 0.
With “CCTAATACATGGACCGGTTTTCCCGGTAATCCGTATTTGGA (site CCTAATACTTC)” the figure was 0.00465.
As for “CCTAATACATGGACCGGTTTTCCCGGTAATCCGTATTTGGG (site CCTAATACTAC)”, the “recombinant UMI read abundance (log10)” value is 0.
The result for “CCTAATACATGGACCGGTTTTCCCGGTAATCCGTATTTGGG (site CCTAATACTCC)” reads 0.011.
With “CCTAATACATGGACCGGTTTTCCCGGTAATCCGTATTTGGG (site CCTAATACTGC)” the figure was 0; with “CCTAATACATGGACCGGTTTTCCCGGTAATCCGTATTTGGG (site CCTAATACTTC)”, 0.0102; with “CCTAATGCATGGACCGGTTTTCCCGGTAATCCGTATTTGAT (site CCTAAAGCTAT)”, 0.
With “CCTAATGCATGGACCGGTTTTCCCGGTAATCCGTATTTGAT (site CCTAACGCTAT)” the figure was 0.00278.
In the case of “CCTAATGCATGGACCGGTTTTCCCGGTAATCCGTATTTGAT (site CCTAAGGCTAT)”, the “recombinant UMI read abundance (log10)” value was found to be 0.
With “CCTAATGCATGGACCGGTTTTCCCGGTAATCCGTATTTGAT (site CCTAATGCTAT)” the figure was 0; with “CCTACGCCATGGACCGGTTTTCCCGGTAATCCGTATTTGAA (site CCTACGCCTTT)”, 0.0231.
With “CCTACTGCATGGACCGGTTTTCCCGGTAATCCGTATTTGCC (site ACTACTGCTGG)” the figure was 0.
With “CCTACTGCATGGACCGGTTTTCCCGGTAATCCGTATTTGCC (site CCTACTGCTGG)” the figure was 0.191; with “CCTACTGCATGGACCGGTTTTCCCGGTAATCCGTATTTGCC (site GCTACTGCTGG)”, 0; with “CCTACTGCATGGACCGGTTTTCCCGGTAATCCGTATTTGCC (site TCTACTGCTGG)”, 0.
As for “CCTCAAGCATGGACCGGTTTTCCCGGTAATCCGTATTTGAT (site CCTAAAGCTAT)”, the “recombinant UMI read abundance (log10)” value came out at 0.
As for “CCTCAAGCATGGACCGGTTTTCCCGGTAATCCGTATTTGAT (site CCTCAAGCTAT)”, the “recombinant UMI read abundance (log10)” value is 0.0413.
With “CCTCAAGCATGGACCGGTTTTCCCGGTAATCCGTATTTGAT (site CCTGAAGCTAT)” the figure was 0.00432.
With “CCTCAAGCATGGACCGGTTTTCCCGGTAATCCGTATTTGAT (site CCTTAAGCTAT)” the figure was 0; with “CCTCACTCATGGACCGGTTTTCCCGGTAATCCGTATTTGCT (site CCTCACTCTAG)”, 0.747.
In the case of “CCTCCGGCATGGACCGGTTTTCCCGGTAATCCGTATTTGGT (site CCTCCGGCTAC)”, the “recombinant UMI read abundance (log10)” value is 0.0132.
With “CCTCGATCATGGACCGGTTTTCCCGGTAATCCGTATTTGGC (site CCTCGATCTGC)” the figure was 0; with “CCTCGGACATGGACCGGTTTTCCCGGTAATCCGTATTTGGT (site CCTCGGACTAC)”, 0.013.
With “CCTCGTACATGGACCGGTTTTCCCGGTAATCCGTATTTGAG (site CCTCGTACTCT)” the figure was 0.0191.
With “CCTGCAGCATGGACCGGTTTTCCCGGTAATCCGTATTTGGC (site CCTGCAGCTGC)”, the “recombinant UMI read abundance (log10)” value amounted to 0.
Consider “CCTGGTTCATGGACCGGTTTTCCCGGTAATCCGTATTTGAC (site CCTGGTTCTGT)”, for which the “recombinant UMI read abundance (log10)” value was 0.
With “CCTGTCGCATGGACCGGTTTTCCCGGTAATCCGTATTTGAA (site CCTGTCGCTTT)” the figure was 0.0175; with “CCTGTCGCATGGACCGGTTTTCCCGGTAATCCGTATTTGAC (site CCTGTCGCTGT)”, 0.
The result for “CCTTAACCATGGACCGGTTTTCCCGGTAATCCGTATTTGCT (site CCTTAACCTAG)” reads 0; that for “CCTTACGCATGGACCGGTTTTCCCGGTAATCCGTATTTGGC (site CCTTACGCTGC)”, 0; that for “CCTTATACATGGACCGGTTTTCCCGGTAATCCGTATTTGGG (site CCTTATACTCC)”, 0.016.
With “CCTTATACATGGACCGGTTTTCCCGGTAATCCGTATTTGGT (site CCTTATACTAC)” the figure was 0.00722.
“CCTTCTGCATGGACCGGTTTTCCCGGTAATCCGTATTTGGA (site CCTTCTGCTTC)”: the “recombinant UMI read abundance (log10)” value was found to be 0.00377.
With “CCTTTCGCATGGACCGGTTTTCCCGGTAATCCGTATTTGAT (site CCTTTCGCTAT)” the figure was 0.0105; with “CCTTTCTCATGGACCGGTTTTCCCGGTAATCCGTATTTGGG (site CCATTCTCTCC)”, 0.00388; with “CCTTTCTCATGGACCGGTTTTCCCGGTAATCCGTATTTGGG (site CCCTTCTCTCC)”, 0.0264.
Regarding “CCTTTCTCATGGACCGGTTTTCCCGGTAATCCGTATTTGGG (site CCGTTCTCTCC)”, the “recombinant UMI read abundance (log10)” value turned out to be 0.011.
For “CCTTTCTCATGGACCGGTTTTCCCGGTAATCCGTATTTGGG (site CCTTTCTCTCC)”, the “recombinant UMI read abundance (log10)” value worked out at 0.
In the case of “CCTTTGGCATGGACCGGTTTTCCCGGTAATCCGTATTTGCT (site CATTTGGCTAG)”, the “recombinant UMI read abundance (log10)” value is 0.00684.
Regarding “CCTTTGGCATGGACCGGTTTTCCCGGTAATCCGTATTTGCT (site CCTTTGGCTAG)”, the “recombinant UMI read abundance (log10)” value was 0.00901.
With “CCTTTGGCATGGACCGGTTTTCCCGGTAATCCGTATTTGCT (site CGTTTGGCTAG)” the figure was 0.
The result for “CCTTTGGCATGGACCGGTTTTCCCGGTAATCCGTATTTGCT (site CTTTTGGCTAG)” reads 0.00684; that for “CGAAAACCATGGACCGGTTTTCCCGGTAATCCGTATTTGTT (site CGAAAACCTAA)”, 0; that for “CGAAAACCATGGACCGGTTTTCCCGGTAATCCGTATTTGTT (site CGGAATCCTAA)”, 0.
As to “CGAACATCATGGACCGGTTTTCCCGGTAATCCGTATTTGAT (site CGAACATCTAT)”, the “recombinant UMI read abundance (log10)” value was determined as 1.63.
In the case of “CGAACATCATGGACCGGTTTTCCCGGTAATCCGTATTTGAT (site CGATCATCTAG)”, the “recombinant UMI read abundance (log10)” value is 0.
With “CGAAGTGCATGGACCGGTTTTCCCGGTAATCCGTATTTGGG (site CGAAGTGCTCC)” the figure was 0.671; with “CGAATGCCATGGACCGGTTTTCCCGGTAATCCGTATTTGAC (site CGAATGCCTGT)”, 0.465; with “CGACCATCATGGACCGGTTTTCCCGGTAATCCGTATTTGCT (site CGAACATCTAG)”, 1.13.
With “CGACCATCATGGACCGGTTTTCCCGGTAATCCGTATTTGCT (site CGACCATCTAG)”, the “recombinant UMI read abundance (log10)” value came out at 2.13.
As to “CGACCATCATGGACCGGTTTTCCCGGTAATCCGTATTTGCT (site CGAGCATCTAG)”, the “recombinant UMI read abundance (log10)” value came to 0.
With “CGACCATCATGGACCGGTTTTCCCGGTAATCCGTATTTGCT (site CGATCATCTAG)”, the “recombinant UMI read abundance (log10)” value was 0.
The result for “CGACGCGCATGGACCGGTTTTCCCGGTAATCCGTATTTGGG (site CGACGCGCTCC)” reads 0.672; that for “CGACTATCATGGACCGGTTTTCCCGGTAATCCGTATTTGTG (site CGACTATCTCA)”, 3.11; that for “CGACTCTCATGGACCGGTTTTCCCGGTAATCCGTATTTGAC (site CGACTCTCTGT)”, 2.88.
With “CGAGAACCATGGACCGGTTTTCCCGGTAATCCGTATTTGAT (site CGAGAACCTAT)” the figure was 0; with “CGAGAACCATGGACCGGTTTTCCCGGTAATCCGTATTTGAT (site CGCGAACCTAT)”, 0.
With “CGAGAACCATGGACCGGTTTTCCCGGTAATCCGTATTTGAT (site CGGGAACCTAT)” the figure was 0; with “CGAGAACCATGGACCGGTTTTCCCGGTAATCCGTATTTGAT (site CGTGAACCTAT)”, 0.
In the case of “CGAGCACCATGGACCGGTTTTCCCGGTAATCCGTATTTGCT (site CGAGCACCTAG)”, the “recombinant UMI read abundance (log10)” value was 0.
The result for “CGAGCGACATGGACCGGTTTTCCCGGTAATCCGTATTTGTT (site CGAACGACTAA)” reads 0.607; that for “CGAGCGACATGGACCGGTTTTCCCGGTAATCCGTATTTGTT (site CGACCGACTAA)”, 0.0145.
The result for “CGAGCGACATGGACCGGTTTTCCCGGTAATCCGTATTTGTT (site CGAGCGACTAA)” reads 1.49; that for “CGAGCGACATGGACCGGTTTTCCCGGTAATCCGTATTTGTT (site CGATCGACTAA)”, 0.0192.

The record behind these values is the supplement of paper PMC11208160.
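Also: IS621 bridge recombinase in Escherichia coli cells against a fixed T5 target plasmid.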
